Data set [1] in a line: mRNA encapsulation efficiency of lipid nanoparticles. It counts as physicochemical. As to conditions: for Encapsulation efficiency (EE): LNP with cationic lipid CL-A. From the text:
In embodiments, the lipid nanoparticle encapsulates a nucleic acid, optionally an mRNA encoding a peptide or protein. In embodiments, the lipid nanoparticle encapsulates an mRNA encoding a peptide or protein, optionally for use in a vaccine. In embodiments, the peptide is an antigen. As used herein, the phrase “encapsulation percentage” refers to the fraction of therapeutic agent (e.g. mRNA) that is effectively encapsulated within a liposomal-based vehicle (e.g. a lipid nanoparticle) relative to the initial fraction of therapeutic agent present in the lipid phase. In embodiments, the lipid nanoparticles have an encapsulation percentage for mRNA of at least 50%. In embodiments, the lipid nanoparticles have an encapsulation percentage for mRNA of at least 55%. In embodiments, the lipid nanoparticles have an encapsulation percentage for mRNA of at least 60%. In embodiments, the lipid nanoparticles have an encapsulation percentage for mRNA of at least 65%. In embodiments, the lipid nanoparticles have an encapsulation percentage for mRNA of at least 70%. In embodiments, the lipid nanoparticles have an encapsulation percentage for mRNA of at least 75%. In embodiments, the lipid nanoparticles have an encapsulation percentage for mRNA of at least 80%. In embodiments, the lipid nanoparticles have an encapsulation percentage for mRNA of at least 85%. In embodiments, the lipid nanoparticles have an encapsulation percentage for mRNA of at least 90%. In embodiments, the lipid nanoparticles have an encapsulation percentage for mRNA of at least 95%. In embodiments, the encapsulation percentage is calculated by performing the Ribogreen assay (Invitrogen) with and without the presence of 0.1% Triton-X 100.
The lipid nanoparticles in the examples of the present invention were formulated using Process A of WO 2018/089801 (see, e.g., Example 1 and FIG. 1 of WO 2018/089801). Process A (“A”) relates to a conventional method of encapsulating mRNA by mixing mRNA with a mixture of lipids, without first pre-forming the lipids into lipid nanoparticles. In an exemplary process, an ethanolic solution of a mixture of lipids (cationic lipid, phosphatidylethanolamine, cholesterol, and polyethylene glycol-lipid) at a fixed lipid to mRNA ratio were combined with an aqueous buffered solution of target mRNA at an acidic pH under controlled conditions to yield a suspension of uniform LNPs. After ultrafiltration and diafiltration into a suitable diluent system, the resulting nanoparticle suspensions were diluted to final concentration, filtered, and stored frozen at −80° C. until use.
(§1) Lipid nanoparticle formulations 3 were prepared by Process A at a molar ratio of 40:1.5:30:28.5 (Cationic Lipid: DMG-PEG2000: Cholesterol: Helper Lipid) with the cationic lipids and helper lipids disclosed in the tables below. The Polydispersity Index (Pdl) of lipid nanoparticles can be determined by diluting the formulation in 10% trehalose at about 0.1 mg/ml mRNA concentration and then measuring the size on Malvern zetasizer. The lipid nanoparticle size can be obtained with Malvern Zetasizer Nano-ZS.

Data set [2] can be described thus: Dynamic light scattering of lipid nanoparticles (size, PDI). It counts as physicochemical. On the procedure: as §1
Dynamic light scattering (DLS) measurements were performed using a Malvern Instruments Zetasizer with a backscattering detector angle of 173° and a 4-mW, 633-nm He—Ne laser (Worcestershire, UK). The samples were analyzed by diluting in 10% Trehalose and measuring the size and Poly dispersity Index (PDI) in an optical grade polystyrene cuvette.

The test system of data set [3] is hEPO. Briefly: IV EPO expression of LNPs (tail vein injection). It counts as in vivo, female BALB/cJ mice. As to conditions: cationic lipid CL-0137, helper lipid 30 mol %; 0.017 μg EPO mRNA tail vein; 6 hours; DOPE = 1. On the procedure:
Lipid nanoparticles were formulated containing the four lipid components shown below at a ratio of 40:30:28.5:1.5, complexed with a hEPO messenger RNA. • Cationic lipid CL-0137, 40 mol % • Helper lipid, 30 mol % • Cholesterol, 28.5 mol % • DMG-PEG-2K (1,2-dimyristoyl-rac-glycero-3-methoxypolyethyleneglycol), 1.5 mol %
EPO expression studies were conducted with female BALB/cJ mice 6-8 weeks of age. Mice were dosed with 0.017 μg EPO mRNA LNPs in a volume of 5 ul by a single tail vein injection. Blood samples were taken 6 hours post injection and hEPO levels were measured in the blood serum of the mice using an ELISA assay according to the manufacture's protocol.

Data set [4] deals with hEPO. Briefly: IM EPO expression of LNPs containing new helper lipids (hEPO in serum by ELISA). The conditions noted are these: for 6-h EPO / 24-h EPO: single IM injection; for 24-h EPO: serum 24 hours post injection; for Normalized Mean EPO expression: helper lipid CL-C formulations, IM, DOPE = 1. It counts as in vivo, female BALB/cJ mice. On the procedure: Lipid nanoparticles were formulated containing the four lipid components shown below at a ratio of 40:30:28.5:1.5, complexed with a hEPO messenger RNA. • Cationic lipid, 40 mol % • Phospholipid (PEA) helper lipid, 30 mol % • Cholesterol, 28.5 mol % • DMG-PEG-2K (1,2-dimyristoyl-rac-glycero-3-methoxypolyethyleneglycol), 1.5 mol % The cationic lipid component of each formulation was selected from the compounds in the table below: […]
EPO expression studies were conducted with female BALB/cJ mice 6-8 weeks of age. Mice were dosed with […] EPO mRNA in 30 μL of LNPs by a single intramuscular (IM) injection into the gastrocnemius leg muscle. Blood samples were taken 6 and 24 hours post injection and hEPO levels were measured in the blood serum of the mice using an ELISA assay according to the manufacture's protocol. WO2022/099003 A1 also describes an in vivo assay for intramuscular administration (e.g. on page 46, paragraph [00206]).

Where [5] appears, read: LNP with cationic lipid CL-A, hEPO mRNA, 40:30:28.5:1.5.
The mark [6] stands for this setting: CL-B LNP, serum 6 hours post injection.

As to `CC(C)CCCCOC(=O)CCCCCCC(=O)OCC(COP(=O)(O)OCCN)OC(=O)CCCCCCC(=O)OCCCCC(C)C` (stereo not shown) [Compound 2, O′^1,O^1-(3-(((2-Aminoethoxy)(hydroxy)phosphoryl)oxy)-propane-1,2-diyl) 8-bis(5-methylhexyl) di(octanedioate)], in data set [1], the “Encapsulation efficiency (EE)” value is 69%. The EE in data set [1] (LNP with cationic lipid CL-B) amounted to 37%; in data set [1] (LNP with cationic lipid CL-C) it was 69%; in data set [1] (LNP with cationic lipid CL-D), 78%. Moreover, the “Polydispersity Index (PDI)” value in data set [2] (LNP with cationic lipid CL-A) was 0.031. Besides, the Size in data set [2] (setting [5]) was 137 nm; in data set [2] (LNP with cationic lipid CL-B), 97.0 nm; in data set [2] (LNP with cationic lipid CL-C), 88.5 nm; in data set [2] (LNP with cationic lipid CL-D) it was 114.3 nm. Besides, the figures for the PDI in data set [2] (LNP with cationic lipid CL-B), in data set [2] (LNP with cationic lipid CL-C) and in data set [2] (LNP with cationic lipid CL-D) were 0.124, 0.102 and 0.064, respectively.
In the case of `CCCCCCCCCC(CCCCCCCCC)C(=O)OCC(COP(=O)(O)OCCN)OC(=O)C(CCCCCCCCC)CCCCCCCCC` (stereo not shown) [Compound 3, 3-(((2-Aminoethoxy)(hydroxy)phosphoryl)oxy)propane-1,2-diyl bis(2-nonylundecanoate)], the “Encapsulation efficiency (EE)” value in data set [1] is given as 65%. Moreover, the EE came out at 25% in data set [1] (LNP with cationic lipid CL-B) and 88% in data set [1] (LNP with cationic lipid CL-C). Moreover, in data set [2] (LNP with cationic lipid CL-A), the “Polydispersity Index (PDI)” value came out at 0.045. Besides, the results for the Size in data set [2] (setting [5]), in data set [2] (LNP with cationic lipid CL-B) and in data set [2] (LNP with cationic lipid CL-C) were 137 nm, 116.4 nm and 111.9 nm, respectively. For the same compound, the PDI was determined as 0.101 in data set [2] (LNP with cationic lipid CL-B) and 0.038 in data set [2] (LNP with cationic lipid CL-C). The “Normalized Mean IV EPO expression” value in data set [3] was 3.32. The “6-h EPO” value in data set [4] (CL-C LNP) is listed as 6.3 ng/mL; in data set [4] (CL-C LNP, (6-h)), 13.4 ng/mL.
Take `CCCCCCCCC(CCCCC)COC(=O)CCC(=O)OCC(COP(=O)(O)OCCN)OC(=O)CCC(=O)OCC(CCCCC)CCCCCCCC` (stereo not shown) [Compound 4, O,O′-(3-(((2-Aminoethoxy)(hydroxy)phosphoryl)oxy)propane-1,2-diyl) bis(2-pentyldecyl) disuccinate]: in data set [1], the “Encapsulation efficiency (EE)” value is on record as 85%. The EE was 86% in data set [1] (LNP with cationic lipid CL-B) and 87% in data set [1] (LNP with cationic lipid CL-C). For the same compound, in data set [2] (LNP with cationic lipid CL-A), the “Polydispersity Index (PDI)” value was 0.048. Moreover, the values for the Size in data set [2] (setting [5]), in data set [2] (LNP with cationic lipid CL-B) and in data set [2] (LNP with cationic lipid CL-C) were 125 nm, 104.7 nm and 109.5 nm, respectively. The PDI in data set [2] (LNP with cationic lipid CL-B) came out at 0.112; in data set [2] (LNP with cationic lipid CL-C), 0.123. Besides, the “Normalized Mean IV EPO expression” value in data set [3] was 2.38. For the same compound, the “6-h EPO” value came out at 13.7 ng/mL in data set [4] (setting [6]); 20.1 ng/mL in data set [4] (CL-C LNP); 22.3 ng/mL in data set [4] (CL-C LNP, (6-h)). Moreover, in data set [4] (CL-B LNP), the “24-h EPO” value is listed as 11.6 ng/mL.
Consider `CCCCCCCCC(CCCCC)COC(=O)CCC(=O)OCC(COP(=O)(O)OCCN)OC(=O)CCC(=O)OCC(CCCCC)CCCCCCCC` (stereo not shown) [Compound 5, O,O′-(3-(((2-Aminoethoxy)(hydroxy)phosphoryl)oxy)propane-1,2-diyl) bis(2-pentyldecyl) disuccinate], for which the “Encapsulation efficiency (EE)” value in data set [1] was 91%. Further, the figures for the EE in data set [1] (LNP with cationic lipid CL-B) and in data set [1] (LNP with cationic lipid CL-C) were 90% and 88%, respectively. Further, the “Polydispersity Index (PDI)” value in data set [2] (LNP with cationic lipid CL-A) is 0.106. Further, the results for the Size in data set [2] (setting [5]), in data set [2] (LNP with cationic lipid CL-B) and in data set [2] (LNP with cationic lipid CL-C) were 121 nm, 98.9 nm and 97.9 nm, respectively. In addition, the PDI amounted to 0.108 in data set [2] (LNP with cationic lipid CL-B) and 0.047 in data set [2] (LNP with cationic lipid CL-C). Moreover, the “Normalized Mean IV EPO expression” value in data set [3] was found to be 1.25. Moreover, the “6-h EPO” value in data set [4] (setting [6]) was found to be 9.8 ng/mL; in data set [4] (CL-C LNP), 10.1 ng/mL; in data set [4] (CL-C LNP, (6-h)) it was 13.3 ng/mL. For the same compound, in data set [4] (CL-B LNP), the “24-h EPO” value amounted to 6.4 ng/mL.
As to `CCCCCCCCC(CCCCCCCC)OC(=O)CCCCCCC(=O)OCC(COP(=O)(O)OCCN(C)CCCO)OC(=O)CCCCCCC(=O)OC(CCCCCCCC)CCCCCCCC` (stereo not shown) [Compound 27], in data set [1], the “Encapsulation efficiency (EE)” value is on record as 94%. Besides, the EE is reported as 98% in data set [1] (LNP with cationic lipid CL-B) and 97% in data set [1] (LNP with cationic lipid CL-C). The “Polydispersity Index (PDI)” value in data set [2] (LNP with cationic lipid CL-A) was determined as 0.059. In addition, the Size in data set [2] (setting [5]) turned out to be 153 nm; in data set [2] (LNP with cationic lipid CL-B), 123.9 nm; in data set [2] (LNP with cationic lipid CL-C), 97.0 nm. In addition, the PDI in data set [2] (LNP with cationic lipid CL-B) was found to be 0.108; in data set [2] (LNP with cationic lipid CL-C), 0.129. For the same compound, the “6-h EPO” value in data set [4] (CL-A LNP, 0.1 μg EPO mRNA in 30 μL, serum 6 hours post injection) is 25.6 ng/mL; in data set [4] (setting [6]) it was 53 ng/mL; in data set [4] (CL-C LNP, (6-h)), 46.9 ng/mL.
In the case of `CCCCCCCCC(CCCCCCCC)OC(=O)CCCCCCC(=O)OC[C@@H](COP(=O)(O)OCCN(C)CCCO)OC(=O)CCCCCCC(=O)OC(CCCCCCCC)CCCCCCCC` [Compound 28, 8-Di(heptadecan-9-yl) O′1,O1-((2S)-3-((hydroxy(2-((3-hydroxypropyl)(methyl)amino)ethoxy)phosphoryl)oxy)propane-1,2-diyl) di(octanedioate)], in data set [4], the “Normalized Mean EPO expression” value stood at 1.77.
Regarding `CCCCCCCCC(CCCCCCCC)OC(=O)CCCCCCC(=O)OC[C@@H](COP(=O)(O)OCC[N+](C)(C)CCCO)OC(=O)CCCCCCC(=O)OC(CCCCCCCC)CCCCCCCC` [Compound 38, (S)-2,3-Bis((8-(heptadecan-9-yloxy)-8-oxooctanoyl)oxy)propyl (2-((3-hydroxypropyl)dimethylammonio)ethyl) phosphate], in data set [3], the “Normalized Mean IV EPO expression” value was determined as 0.8.
As to `CCCCCCCCC(CCCCCCCC)OC(=O)CCCCCCC(=O)OCC(COP(=O)(O)OCCCN(C)C)OC(=O)CCCCCCC(=O)OC(CCCCCCCC)CCCCCCCC` (stereo not shown) [Compound 60], the “Normalized Mean IV EPO expression” value in data set [3] is reported as 4.61. Moreover, the “Normalized Mean EPO expression” value in data set [4] is listed as 1.39.
On the same counts, the results for `CCCCCCCCC(CCCCCCCC)OC(=O)CCCCCCC(=O)OC[C@@H](COP(=O)(O)OCCCCCN(C)C)OC(=O)CCCCCCC(=O)OC(CCCCCCCC)CCCCCCCC` [Compound 65, O′^1,O^1-((2S)-3-((((5-(Dimethylamino)pentyl)oxy)(hydroxy)phosphoryl)-oxy)propane-1,2-diyl) 8-di(heptadecan-9-yl) di(octanedioate)] are 2.14 and 0.825.

The record behind these values is US20260224688A1, “HELPER LIPIDS FOR NUCLEIC ACID DELIVERY” (SANOFI PASTEUR INC., priority 2023, published 2026).
